Experimental data reported in US8796428B2, “Erk1/2 posphorylation site specific antibody” (Julius-Maximilians-Universitaet Wuerzburg, priority 2008, dated 2014).

How the values were obtained:
Erk1/2 = experiment: Immunoblot of Thr188-phosphorylation of Erk1/2 in cardiomyocytes; type: cell-based; conditions: 20 ng ml^−1
Description: The inventors prepared cell lysates and tissue lysates using lysis buffer (0.5% (v/v) NP-40, 150 mM NaCl, 25 mM Na4P2O7, 50 mM β-glycerol phosphate disodium salt, 2 mM EDTA, 2 mM EGTA, 25 mM Tris, pH 8.0, 10% (v/v) glycerol, 10 μg ml^−1 soybean trypsin inhibitor, 1 mM benzamidine, 1 mM PMSF, 50 mM NaF, 0.1 mM Na3VO4, 0.002% (w/v) NaN3) similarly as described (Lorenz et al., 2003). The inventors determined the interaction of Gβγ with endogenous Raf1, ERK1/2, HA-tagged Raf1 or HA-tagged Erk2 constructs by immunoprecipitation with the respective antibodies (as indicated in the figures). After immunoprecipitation, the inventors detected co-immunoprecipitated proteins in immunoblot analyses using the respective antibodies (as indicated in the figures). Before lysis, the inventors incubated adult or neonatal cardiomyocytes with or without agonist as indicated (angiotensinII, 100 nM, 5 min or 24 h; carbachol, 300 μM, 10 min or 36 h; […]; phenylephrine, 35 μM, 5 min or 48 h). HEK293-cells were cultured in the absence or presence of carbachol (100 μM, 6 min) or UK14304 (1 μM, 10 min) before lysis. […]

Gαq/11 = experiment: Detection of tyrosine phosphorylated Gαq/11 in neonatal cardiomyocytes; type: cell-based, rat; conditions: 20 ng ml^−1, 10 min
Description: (§1) The inventors assessed phosphorylation of Gαq/11 by immunoprecipitation of Gαq/11 from lysates of neonatal cardiomyocytes without or with neuregulin1-β1 treatment (20 ng ml^−1, 10 min) using Gαq/11-specific antibodies (sc-392 AC, Santa Cruz) followed by detection of phosphotyrosine and immunoprecipitated Gαq/11 by immunoblot analyses. The inventors prepared the lysates as described above.

[1] = system: Gβγ interaction with Raf1 and Erk1/2; experiment: Co-immunoprecipitation of Gβγ with Raf1 and Erk1/2 in neonatal rat cardiomyocytes; type: cell-based; conditions: angiotensinII 100 nM 5 min, carbachol 300 μM 10 min, neuregulin 20 ng ml^−1 10 min
Description: (§2) The inventors prepared cell lysates and tissue lysates using lysis buffer (0.5% (v/v) NP-40, 150 mM NaCl, 25 mM Na4P2O7, 50 mM β-glycerol phosphate disodium salt, 2 mM EDTA, 2 mM EGTA, 25 mM Tris, pH 8.0, 10% (v/v) glycerol, 10 μg ml^−1 soybean trypsin inhibitor, 1 mM benzamidine, 1 mM PMSF, 50 mM NaF, 0.1 mM Na3VO4, 0.002% (w/v) NaN3) similarly as described (Lorenz et al., 2003). The inventors determined the interaction of Gβγ with endogenous Raf1, ERK1/2, HA-tagged Raf1 or HA-tagged Erk2 constructs by immunoprecipitation with the respective antibodies (as indicated in the figures). After immunoprecipitation, the inventors detected co-immunoprecipitated proteins in immunoblot analyses using the respective antibodies (as indicated in the figures). Before lysis, the inventors incubated adult or neonatal cardiomyocytes with or without agonist as indicated (angiotensinII, 100 nM, 5 min or 24 h; carbachol, 300 μM, 10 min or 36 h; neuregulin1-β1, 20 ng ml^−1, 10 min or 24 h; phenylephrine, 35 μM, 5 min or 48 h). HEK293-cells were cultured in the absence or presence of carbachol (100 μM, 6 min) or UK14304 (1 μM, 10 min) before lysis. […]

Src-kinase = experiment: Neuregulin-induced hypertrophic effects in neonatal cardiomyocytes with Src-kinase inhibitor; type: cell-based, rat
Description: as §1
The inventors measured protein synthesis rates in isolated cardiomyocytes by [^3H]isoleucine incorporation. The inventors seeded transfected cardiomyocytes on 24-well plates in MEM supplemented with bromodeoxyuridine (25 mg l^−1), cobalamin (2 mg l^−1), NaHCO3 (350 mg l^−1), penicillin (100 U ml^−1), streptomycin (100 μg ml^−1) and 5% (v/v) fetal calf serum. After 24 h, the inventors reduced the serum concentration to 1% for 1 day followed by fasting in serum-free medium for 24-48 h. Thereafter, the inventors labeled the cells with [^3H]isoleucine (1 μCi ml^−1) for 24-48 h in the absence or presence of 100 nM angiotensinII, 300 μM carbachol, 10 ng ml^−1 neuregulin1-β1 or 35 μM (R)-(−)-phenylephrine as indicated. The inventors measured radioactivity incorporated into the TCA (trichloroacetic acid)-precipitable material by scintillation counting.

Mek = experiment: Determination of total inositol phosphates in HEK293-cells; type: cell-based; conditions: carbachol 50 μM, 15 min
Description: For determination of total inositol phosphates, the inventors transfected HEK293-cells with the indicated Erk2-constructs. After labeling of the cells with myo-[2-^3H]-inositol (1 mCi ml^−1) in inositol-free DMEM for 24 h, the inventors incubated the cells in incubation buffer (137 mM NaCl, 5 mM KCl, 10 mM LiCl, 1 mM CaCl2, 1 mM MgCl2, 10 mM HEPES, […]) for 15 min. The inventors extracted the inositol phosphates by addition of HClO4 (20%) before neutralizing the extract with KOH (1 M), removing the precipitates by centrifugation and applying the supernatants to anion exchange columns (DowexAG1×8, Biorad). The inventors then eluted total inositol phosphates by HCl (1 M) and measured the incorporated radioactivity by scintillation counting.

Mek1/2 = experiment: Co-immunoprecipitation of HA-Raf1 with Gβ in HEK293 cells; type: cell-based; conditions: PD98059 50 μM, CCH, 5 min
Description: as §2, with “[…] The inventors prepared ventricular tissue from mouse hearts derived from male 129SvEv (FIG. 1g,h), FVB/N wild-type (WT) or Erk2^T188-transgenic mice (1188T, T188D, T188S, T188A) (FVB/N background) without or after transverse aortic constriction (TAC, see Fig. legends for the duration of TAC) or carbachol-infusion. Control animals” for “HEK293-cells”, “strain-, age- and gender-matched.” for “cultured in the absence or presence of carbachol (100 μM, 6 min) or UK14304 (1 μM, 10 min) before lysis.”

neuregulin1-β1 was tested, and the “Thr188-phosphorylation of Erk1/2” value (Erk1/2) was “induced”, the “phosphorylation of Gαq/11 at Tyr356” value (Gαq/11) was “triggered” and the “co-immunoprecipitation of Gβγ with both Raf1 and Erk1/2” value [1] was “permitted”.

In the case of CC(C)(C)n1nc(-c2ccc(Cl)cc2)c2c(N)ncnc21 [PP2], the “effect on neuregulin-induced effects (Gβγ co-immunoprecipitation, Gαq/11 phosphorylation, protein synthesis)” value (Src-kinase) is reported as “blocked”.

In the case of “angiotensinII (DRVYIHPF; Angiotensin-2; UniProt P01019 25-32, looked up) [triggers hypertrophy via Gq-coupled AT1-receptors]”, the “co-immunoprecipitation of Gβγ with both Raf1 and Erk1/2” value [1] is reported as “markedly enhanced”.

For COc1cccc(-c2cc(=O)c3ccccc3o2)c1N [PD98059], the “carbachol-stimulated inositol phosphate signaling compared to control cells” value (Mek) was “enhanced” and the “carbachol-stimulated interaction of HA-Raf1 with Gβ” value (Mek1/2) was “suppressed”.
